This experiment deals with T1, CCR2 (Homo sapiens, UniProt P41597).
T1 construct: host or cells: THP-1 (human monocytic cell line)
As to the kind of experiment: MCP-1 Receptor Binding Assay in THP-1 Cells. Conditions: read-out: MCP1B_v3 IC50. Summed up: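 Human monocytic THP-1 cells incubated 2 h at 30 °C with 0.5 nM 125I-MCP-1 and varying concentrations of test compound or unlabelled MCP-1. Cells filter-harvested and counted by scintillation; blank subtracted, compared with vehicle; nonspecific binding with 1 μM cold MCP-1.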

Structures are written as SMILES.

T1 sequence (P41597 whole entry): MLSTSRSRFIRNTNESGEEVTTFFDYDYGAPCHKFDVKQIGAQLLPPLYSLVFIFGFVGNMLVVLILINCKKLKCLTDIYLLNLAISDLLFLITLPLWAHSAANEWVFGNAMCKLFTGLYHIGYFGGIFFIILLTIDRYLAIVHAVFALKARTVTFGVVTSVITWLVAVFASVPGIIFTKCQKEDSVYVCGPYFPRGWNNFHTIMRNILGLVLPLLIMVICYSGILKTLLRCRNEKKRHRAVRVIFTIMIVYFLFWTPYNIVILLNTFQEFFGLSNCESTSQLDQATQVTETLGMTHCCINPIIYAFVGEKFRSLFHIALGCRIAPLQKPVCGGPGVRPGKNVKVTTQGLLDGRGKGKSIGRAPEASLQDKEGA

As a reminder, the IC50 is the concentration at which inhibition is half-maximal. Regarding `COC1COCCC1N[C@@H]1C[C@H]2CN(C(=O)OCC(C)C)C[C@@]2(C(=O)N2CCc3ncc(C(F)(F)F)cc3C2)C1` (relative stereo) [Example 64, (3aR,5R,6aR)-Isobutyl 5-(((3S*,4S*)-3-methoxytetrahydro-2H-pyran-4-yl)amino)-3a-(3-(trifluoromethyl)-5,6,7,8-tetrahydro-1,6-naphthyridine-6-carbonyl)hexahydro-cyclopenta[c]pyrrole-2(1H)-carboxylate], the half-inhibitory concentration (IC50) was 40 nM.
With `COC1COCCC1N[C@@H]1C[C@H]2CN(C(C)=O)C[C@@]2(C(=O)N2CCc3ncc(C(F)(F)F)cc3C2)C1` (relative stereo) [Example 66, 1-((3aR,5R,6aR)-5-(((3S*,4S*)-3-Methoxytetrahydro-2H-pyran-4-yl)amino)-3a-(3-(trifluoromethyl)-5,6,7,8-tetrahydro-1,6-naphthyridine-6-carbonyl)hexahydrocyclopenta-[c]pyrrol-2(1H)-yl)ethanone] the figure was 400 nM.
With `COC1COCCC1N[C@@H]1C[C@H]2CN(C(=O)COc3ccccc3)C[C@@]2(C(=O)N2CCc3ncc(C(F)(F)F)cc3C2)C1` (relative stereo) [Example 68, 1-((3aR,5R,6aR)-5-(((3S*,4S*)-3-Methoxytetrahydro-2H-pyran-4-yl)amino)-3a-(3-(trifluoromethyl)-5,6,7,8-tetrahydro-1,6-naphthyridine-6-carbonyl)hexahydrocyclopenta-[c]pyrrol-2(1H)-yl)-2-phenoxyethanone] the figure was 130 nM; with `COC1COCCC1N[C@@H]1C[C@H]2CN(C(=O)c3ccccc3)C[C@@]2(C(=O)N2CCc3ncc(C(F)(F)F)cc3C2)C1` (relative stereo) [Example 69, ((3aR,5R,6aR)-2-Benzoyl-5-(((3S*,4S*)-3-methoxytetrahydro-2H-pyran-4-yl)amino)-octahydrocyclopenta[c]pyrrol-3a-yl)(3-(trifluoromethyl)-7,8-dihydro-1,6-naphthyridin-6(5H)-yl)methanone], 150 nM.
With `COC1COCCC1N[C@@H]1C[C@H]2CN(C(=O)c3ncco3)C[C@@]2(C(=O)N2CCc3ncc(C(F)(F)F)cc3C2)C1` (relative stereo) [Example 70, ((3aR,5R,6aR)-5-(((3S*,4S*)-3-Methoxytetrahydro-2H-pyran-4-yl)amino)-2-(oxazole-2-carbonyl)octahydrocyclopenta[c]pyrrol-3a-yl)(3-(trifluoromethyl)-7,8-dihydro-1,6-naphthyridin-6(5H)-yl)methanone] the figure was 80 nM; with `COC1COCCC1N[C@@H]1C[C@H]2CN(C(=O)c3ccno3)C[C@@]2(C(=O)N2CCc3ncc(C(F)(F)F)cc3C2)C1` (relative stereo) [Example 71, Isoxazol-5-yl((3aR,5R,6aR)-5-(((3S*,4S*)-3-methoxytetrahydro-2H-pyran-4-yl)amino)-3a-(3-(trifluoromethyl)-5,6,7,8-tetrahydro-1,6-naphthyridine-6-carbonyl)hexahydrocyclopenta-[c]pyrrol-2(1H)-yl)methanone], 160 nM; with `COC1COCCC1N[C@@H]1C[C@H]2CN(C(=O)c3cocn3)C[C@@]2(C(=O)N2CCc3ncc(C(F)(F)F)cc3C2)C1` (relative stereo) [Example 72, ((3aR,5R,6aR)-5-(((3S*,4S*)-3-Methoxytetrahydro-2H-pyran-4-yl)amino)-2-(oxazole-4-carbonyl)octahydrocyclopenta[c]pyrrol-3a-yl)(3-(trifluoromethyl)-7,8-dihydro-1,6-naphthyridin-6(5H)-yl)methanone], 30 nM.
For the compound `C#CC(=O)N1C[C@@H]2C[C@@H](NC3CCOCC3OC)C[C@]2(C(=O)N2CCc3ncc(C(F)(F)F)cc3C2)C1` (relative stereo) [Example 73, 1-((3aR,5R,6aR)-5-(((3S*,4S*)-3-Methoxytetrahydro-2H-pyran-4-yl)amino)-3a-(3-(trifluoromethyl)-5,6,7,8-tetrahydro-1,6-naphthyridine-6-carbonyl)hexahydrocyclopenta-[c]pyrrol-2(1H)-yl)prop-2-yn-1-one], the IC50 is 360 nM.
On to `COC1COCCC1N[C@@H]1C[C@H]2CN(C(=O)CNC(C)=O)C[C@@]2(C(=O)N2CCc3ncc(C(F)(F)F)cc3C2)C1` (relative stereo) [Example 75, N-(2-((3aR,5R,6aR)-5-(((3S*,4S*)-3-Methoxytetrahydro-2H-pyran-4-yl)amino)-3a-(3-(trifluoromethyl)-5,6,7,8-tetrahydro-1,6-naphthyridine-6-carbonyl)hexahydrocyclopenta-[c]pyrrol-2(1H)-yl)-2-oxoethyl)acetamide], for which the half-inhibitory concentration (IC50) came out at 170 nM.
Take `COC1COCCC1N[C@@H]1C[C@H]2CN(C(=O)CN(C)C)C[C@@]2(C(=O)N2CCc3ncc(C(F)(F)F)cc3C2)C1` (relative stereo) [Example 76, 2-(Dimethylamino)-1-((3aR,5R,6aR)-5-(((3S*,4S*)-3-methoxytetrahydro-2H-pyran-4-yl)amino)-3a-(3-(trifluoromethyl)-5,6,7,8-tetrahydro-1,6-naphthyridine-6-carbonyl)hexahydrocyclopenta[c]pyrrol-2(1H)-yl)ethanone]: the IC50 turned out to be 160 nM.
Consider `COC1COCCC1N[C@@H]1C[C@H]2CN(C(=O)CCN(C)C)C[C@@]2(C(=O)N2CCc3ncc(C(F)(F)F)cc3C2)C1` (relative stereo) [Example 77, 3-(Dimethylamino)-1-((3aR,5R,6aR)-5-(((3S*,4S*)-3-methoxytetrahydro-2H-pyran-4-yl)amino)-3a-(3-(trifluoromethyl)-5,6,7,8-tetrahydro-1,6-naphthyridine-6-carbonyl)hexahydrocyclopenta[c]pyrrol-2(1H)-yl)propan-1-one], for which the IC50 turned out to be 230 nM.
With `COC1COCCC1N[C@@H]1C[C@H]2CN(C(=O)CCCN(C)C)C[C@@]2(C(=O)N2CCc3ncc(C(F)(F)F)cc3C2)C1` (relative stereo) [Example 78, 4-(Dimethylamino)-1-((3aR,5R,6aR)-5-(((3S*,4S*)-3-methoxytetrahydro-2H-pyran-4-yl)amino)-3a-(3-(trifluoromethyl)-5,6,7,8-tetrahydro-1,6-naphthyridine-6-carbonyl)-hexahydrocyclopenta[c]pyrrol-2(1H)-yl)butan-1-one] the figure was 230 nM.
For `COC1COCCC1N[C@@H]1C[C@H]2CN(C(=O)CCN3CCCCC3)C[C@@]2(C(=O)N2CCc3ncc(C(F)(F)F)cc3C2)C1` (relative stereo) [Example 79, 1-((3aR,5R,6aR)-5-(((3S*,4S*)-3-Methoxytetrahydro-2H-pyran-4-yl)amino)-3a-(3-(trifluoromethyl)-5,6,7,8-tetrahydro-1,6-naphthyridine-6-carbonyl)hexahydrocyclopenta-[c]pyrrol-2(1H)-yl)-3-(piperidin-1-yl)propan-1-one], the IC50 amounted to 500 nM.
With `COC1COCCC1N[C@@H]1C[C@H]2CN(C(=O)CCN3CCOCC3)C[C@@]2(C(=O)N2CCc3ncc(C(F)(F)F)cc3C2)C1` (relative stereo) [Example 80, 1-((3aR,5R,6aR)-5-(((3S*,4S*)-3-Methoxytetrahydro-2H-pyran-4-yl)amino)-3a-(3-(trifluoromethyl)-5,6,7,8-tetrahydro-1,6-naphthyridine-6-carbonyl)hexahydrocyclopenta-[c]pyrrol-2(1H)-yl)-3-morpholinopropan-1-one] the figure was 230 nM.
With `COC1COCCC1N[C@@H]1C[C@H]2CN(C(=O)c3nccs3)C[C@@]2(C(=O)N2CCc3ncc(C(F)(F)F)cc3C2)C1` (relative stereo) [Example 81, ((3aR,5R,6aR)-5-(((3S*,4S*)-3-Methoxytetrahydro-2H-pyran-4-yl)amino)-2-(thiazole-2-carbonyl)octahydrocyclopenta[c]pyrrol-3a-yl)(3-(trifluoromethyl)-7,8-dihydro-1,6-naphthyridin-6(5H)-yl)methanone] the figure was 40 nM; with `COC1COCCC1N[C@@H]1C[C@H]2CN(C(=O)C#CC3CC3)C[C@@]2(C(=O)N2CCc3ncc(C(F)(F)F)cc3C2)C1` (relative stereo) [Example 86, 3-Cyclopropyl-1-((3aR,5R,6aR)-5-(((3S*,4S*)-3-methoxytetrahydro-2H-pyran-4-yl)amino)-3a-(3-(trifluoromethyl)-5,6,7,8-tetrahydro-1,6-naphthyridine-6-carbonyl)hexahydro-cyclopenta[c]pyrrol-2(1H)-yl)prop-2-yn-1-one], 90 nM; with `COC1COCCC1N[C@@H]1C[C@H]2CN(C(=O)CNC(=O)OC(C)(C)C)C[C@@]2(C(=O)N2CCc3ncc(C(F)(F)F)cc3C2)C1` (relative stereo) [Example 87, tert-Butyl (2-((3aR,5R,6aR)-5-(((3S*,4S*)-3-methoxytetrahydro-2H-pyran-4-yl)amino)-3a-(3-(trifluoromethyl)-5,6,7,8-tetrahydro-1,6-naphthyridine-6-carbonyl)hexahydrocyclopenta[c]pyrrol-2(1H)-yl)-2-oxoethyl)carbamate], 360 nM.
With `COC1COCCC1N[C@@H]1C[C@H]2CN(C(=O)/C=C/CN3CCCC3)C[C@@]2(C(=O)N2CCc3ncc(C(F)(F)F)cc3C2)C1` (relative stereo) [Example 88, (E)-1-((3aR,5R,6aR)-5-(((3S*,4S*)-3-methoxytetrahydro-2H-pyran-4-yl)amino)-3a-(3-(trifluoromethyl)-5,6,7,8-tetrahydro-1,6-naphthyridine-6-carbonyl)hexahydro-cyclopenta[c]pyrrol-2(1H)-yl)-4-(pyrrolidin-1-yl)but-2-en-1-one] the figure was 40 nM; with `CO[C@@H]1COCC[C@@H]1N[C@@H]1C[C@H]2CN(C(=O)/C=C/c3ccc(C(=O)O)cc3)C[C@@]2(C(=O)N2CCc3ccc(C(F)(F)F)cc3C2)C1` (relative stereo) [Example 89, 4-((E)-3-((3aR,5R,6aR)-5-(((3S*,4S*)-3-methoxytetrahydro-2H-pyran-4-yl)amino)-3a-(7-(trifluoromethyl)-1,2,3,4-tetrahydroisoquinoline-2-carbonyl)hexahydrocyclopenta-[c]pyrrol-2(1H)-yl)-3-oxoprop-1-en-1-yl)benzoic acid], 10 nM.
